Measured values from patent US5082926A, “Polypeptide with type IV collagen cell adhesion, spreading and motility activity” (Regents of the University of Minnesota, priority 1989, dated 1992).
Residues, ends and D or L forms follow the SMILES beside them.

Columns and labels:
[1] = tested on: K 1735 M4 melanoma cells; experiment: Melanoma cell adhesion and spreading on peptide-coated Immulon 1 wells; assay type: cell-based, mouse; conditions: K1735 M4 melanoma; surface coated at 100 μg/ml; average of three experiments
Protocol: Subconfluent cultures of M4 melanoma cells were radiolabeled overnight with 2 μCi/ml ^3 H-thymidine. […] The melanoma cells were then washed and resuspended to a final concentration of 3-4×10^4 cells/ml in DME supplemented with 20 mM Hepes and 10 mg/ml BSA. The cells remained viable (>95%) after this procedure, based upon exclusion of trypan blue dye.
(§1) Immulon 1 microtiter plates were prepared by drying down 100 μl/well of IV-H1 peptide which had been diluted to various concentrations (1-500 μg/ml) in Voller's carbonate buffer. The ability of the IV-H1 peptide to bind the plates was determined using radioiodinated peptides (described previously) in order to be certain that any differences in cell adhesion (or spreading) were not due to differential binding to surfaces. Nonspecific cell adhesion to sites on the plastic was blocked by the use of a 10 mg/ml solution of BSA in Voller's carbonate buffer at 37° C. for 1 hr. […] Adhesion was quantitated after washing to remove nonadherent and weakly adherent cells, by solubilizing the cells with 150 μl/well of 0.5N NaOH containing 1% SDS. Bound radioactivity was quantitated in a Beckman LS 3801 liquid scintillation counter. […] Each experiment was repeated a minimum of three times, and within a given experiment, each experimental point was determined in triplicate.

[2] = tested on: Bovine aortic endothelial cells; experiment: Cell adhesion and spreading on coated peptide IV-H1 or type IV collagen; assay type: cell-based; conditions: surface coated at 100 μg/ml
Protocol: (§2) To characterize peptide IV-H1, the interaction of the peptide with other cell lines was investigated. These cell lines include the highly metastatic human melanoma cell line A375 M (also provided by Dr. Fidler), which was maintained in MEM with added vitamins and 10% FBS; and the fibrosarcoma cell line UV2237 MM, which was maintained in DME with 10% FBS. […]
as §1, with “surfaces.” for “surfaces. Nonspecific cell adhesion to sites on the plastic was blocked by the use of a 10 mg/ml solution of BSA in Voller's carbonate buffer at 37° C. for 1 hr.”, “triplicate. […]” for “triplicate.”

[3] = tested on: A375 M melanoma; experiment: as above; assay type: cell-based, human; conditions: surface coated at 100 μg/ml
Protocol: as §2
as §1, with “surfaces.” for “surfaces. Nonspecific cell adhesion to sites on the plastic was blocked by the use of a 10 mg/ml solution of BSA in Voller's carbonate buffer at 37° C. for 1 hr.”, “triplicate. […]” for “triplicate.”

[4] = tested on: Squamous carcinoma cell line (SCC9); experiment: as above; assay type: cell-based, human; conditions: surface coated at 100 μg/ml
Protocol: as §2
as §1, with “surfaces.” for “surfaces. Nonspecific cell adhesion to sites on the plastic was blocked by the use of a 10 mg/ml solution of BSA in Voller's carbonate buffer at 37° C. for 1 hr.”, “triplicate. […]” for “triplicate.”

[5] = tested on: UV 2237 fibrosarcoma; experiment: as above; assay type: cell-based, murine; conditions: surface coated at 100 μg/ml
Protocol: as §2
as §1, with “surfaces.” for “surfaces. Nonspecific cell adhesion to sites on the plastic was blocked by the use of a 10 mg/ml solution of BSA in Voller's carbonate buffer at 37° C. for 1 hr.”, “triplicate. […]” for “triplicate.”

[6] = tested on: B104 neuroblastoma; experiment: as above; assay type: cell-based, rat; conditions: surface coated at 100 μg/ml
From the text: (§3) To characterize peptide IV-H1, the interaction of the peptide with other cell lines was investigated. These cell lines include the highly metastatic human melanoma cell line A375 M (also provided by Dr. Fidler), which was maintained in MEM with added vitamins and 10% FBS; and the fibrosarcoma cell line UV2237 MM, which was maintained in DME with 10% FBS. Other cell lines studied included: the C6 rat glioma cell line (ATCC, #CCL107), which was maintained in DME plus 10% CS; the SCC9 human squamous carcinoma cell line (ATCC, #CRL1629), which was maintained in a 1:1 solution of DME and HAM F12 containing 10% FBS; the B65 and B104 murine neuroblastoma cell lines which were obtained from Dr. David Schubert at the Salk Institute (Schuber et al., Nature, 249, 224-227 (1974)) and maintained in F12H media with supplements; and bovine aortic endothelial cells, which were isolated and maintained as described by Herbst et al., J. Cell Biol., 106, 1365-1373 (1988), the disclosure of which is incorporated by reference herein.
as §1, with “triplicate. […]” for “triplicate.”

[7] = tested on: B65 neuroblastoma; experiment: as above; assay type: cell-based, rat; conditions: surface coated at 100 μg/ml
From the text: as §3
as §1, with “triplicate. […]” for “triplicate.”

[8] = tested on: C6 glioma; experiment: as above; assay type: cell-based, rat; conditions: surface coated at 100 μg/ml
From the text: as §3
as §1, with “triplicate. […]” for “triplicate.”

[9] = tested on: M4 melanoma cells; experiment: Melanoma cell motility in microchemotaxis chambers on coated filters; assay type: cell-based, mouse; conditions: 10 μg/ml solution
Protocol: In light of the involvement of cell adhesion and spreading in motility, peptide IV-H1 was studied for its ability to directly promote melanoma cell motility. Peptide-mediated M4 melanoma cell motility was examined in 48-well microchemotaxis chambers (Neuroprobe, Bethesda, MD) equipped with 8 μm pore size polyvinylpyrrolidone-free polycarbonate filters by a modification of a procedure described by Herbst et al., supra. Briefly, peptides were diluted in Voller's carbonate buffer and added in triplicate 50 μl aliquots to the lower wells of the chambers. The chambers were assembled with the filters in place and incubated overnight at 37° C. to allow the peptides to adsorb to the lower surfaces of the filters. The filters were then washed and transferred to fresh chambers which contained only media (DME containing 20 mM Hepes, pH 7.4). Cells were then added to the upper wells at 20,000/well in DME/Hepes media and incubated for 6 hr. at 37° C. in a humidified CO2 chamber. Filters were then washed, fixed and stained, and the number of cells which had migrated through the filters was quantitated using an Optomax Image Analysis System as described in Herbst et al., supra. Each experiment was repeated a minimum of three times. […] This compares with melanoma cell motility of 10-fold background levels in response to a 10 μg/ml solution of intact type IV collagen (FIG. 4b).

[10] = tested on: M4 melanoma cells; conditions: 50 μg/ml
Protocol: The collagen coating concentration (5 μg/ml) was chosen based on the concentration which yielded half-maximal levels of cellular motility. The inhibitory effect of the peptides on cell motility was determined by preincubating the cells with increasing concentrations of the peptides for 20 min. prior to the assay to allow for binding to cell surface receptors. Cells in the continued presence of peptides were then added to the upper wells of chambers containing the protein-coated filters.

Type IV Collagen: Type IV collagen extracted from the Englebreth Holm Swarm sarcoma grown in lathyritic mice
% AD (percent of input cells which adhered) [1]: 61.9%
% AD (percent of input cells which adhered) [2]: 52.7%
% AD (percent of input cells which adhered) [3]: 50.3%
% AD (percent of input cells which adhered) [4]: 39.6%
% AD (percent of input cells which adhered) [5]: 7.9%
% AD (percent of input cells which adhered) [6]: 18.6%
% AD (percent of input cells which adhered) [7]: 7.7%
% AD (percent of input cells which adhered) [8]: 100.0%
melanoma cell motility [9]: 10 -fold background levels

CC(C)[C@H](NC(=O)CN)C(=O)N[C@@H](CCCCN)C(=O)NCC(=O)N[C@@H](CC(=O)O)C(=O)N[C@@H](CCCCN)C(=O)NCC(=O)N[C@@H](CC(N)=O)C(=O)N1CCC[C@H]1C(=O)NCC(=O)N[C@@H](Cc1c[nH]c2ccccc12)C(=O)N1CCC[C@H]1C(=O)NCC(=O)N[C@@H](C)C(=O)N1CCC[C@H]1C(=O)O [peptide IV-H1, GVKGDKGNPGWPGAP] (H-GVKGDKGNPGWPGAP-OH)
maximal inhibition of type IV collagen-mediated cell motility [10]: 80%
